What all share (assay type): cell-based
One experiment has as its system A549. Kind of experiment: In vitro antiproliferative activity, resazurin cell viability. The following applies: Homo sapiens, non-small cell lung cancer, 72 h of treatment, mean ± SEM. Here is the method:
(§1) To test the newly synthesized compounds, various human cell lines were employed. HD‐MB03 cells were purchased from DSMZ (Braunschweig, Germany), while A549, MDA‐MB‐231, RPMI‐8420, SU‐DHL‐8, TOLEDO, VL51, SU‐DHL‐1, SU‐DHL‐18, and KM‐H2 were obtained from ATCC (Manassas, VA, USA). Cells were cultured in DMEM (for MDA‐MB‐231 and A549) or RPMI‐1640 (for RPMI‐8420, SU‐DHL‐8, TOLEDO, VL51, SU‐DHL‐1, SU‐DHL‐18, KM‐H2, and HD‐MB03) media (Gibco, Milan, Italy). Both media were supplemented with 115 units/mL penicillin G (Gibco, Milan, Italy), 115 µg/mL streptomycin (Invitrogen, Milan, Italy), and 10% fetal bovine serum (Invitrogen, Milan, Italy). Peripheral blood mononuclear cells (PBMCs) were isolated from healthy donors as previously described. For cytotoxicity assays, PBMCs were resuspended at 5 × 10⁵ cells/mL in complete RPMI medium with or without 2.5 µg/mL phytohemagglutinin (PHA) (Irvine Scientific) to stimulate T‐cell activation and proliferation. All cell lines were maintained at 37°C in a humidified atmosphere containing 5% CO₂. All compounds were dissolved in DMSO at a 10 mM stock concentration. For dose–response assays, cells were seeded in 96‐well plates at densities optimized for each cell line: HD‐MB03 at 10,000 cells/well, A549 at 4000 cells/well, and MDA‐MB‐231 at 7000 cells/well. All other cell lines were seeded at 20,000 cells/well in a final volume of 100 µL per well. After 24 h, cells were treated with a 6‐point serial dilution of compounds starting from 10 µM, in triplicate for statistical analysis. Seventy‐2 h posttreatment, 10 µL of resazurin solution (100 µg/mL) was added to each well, and cells were incubated for an additional 3–6 h. Fluorescence was measured using a Spark 10 M microplate reader (Tecan Group Ltd., Männedorf, Switzerland) with excitation at 535 nm and emission at 600 nm. The IC₅₀ was defined as the concentration of compound required to inhibit cell proliferation by 50% compared to cells treated with the highest DMSO concentration.
(§2) To test the newly synthesized compounds, various human cell lines were employed. HD-MB03 cells were purchased from DSMZ (Braunschweig, Germany), while A549, MDA-MB-231, RPMI-8420, SU-DHL-8, TOLEDO, VL51, SU-DHL-1, SU-DHL-18, and KM-H2 were obtained from ATCC (Manassas, VA, USA). Cells were cultured in DMEM (for MDA-MB-231 and A549) or RPMI-1640 (for RPMI-8420, SU-DHL-8, TOLEDO, VL51, SU-DHL-1, SU-DHL-18, KM-H2, and HD-MB03) media (Gibco, Milan, Italy). Both media were supplemented with 115 units/mL penicillin G (Gibco, Milan, Italy), 115 µg/mL streptomycin (Invitrogen, Milan, Italy), and 10% fetal bovine serum (Invitrogen, Milan, Italy). Peripheral blood mononuclear cells (PBMCs) were isolated from healthy donors as previously described. ^[1] For cytotoxicity assays, PBMCs were resuspended at 5 × 10⁵ cells/mL in complete RPMI medium with or without 2.5 µg/mL phytohemagglutinin (PHA) (Irvine Scientific) to stimulate T cell activation and proliferation. All cell lines were maintained at 37 °C in a humidified atmosphere containing 5% CO₂. All compounds were dissolved in DMSO at a 10 mM stock concentration. For dose–response assays, cells were seeded in 96-well plates at densities optimized for each cell line: HD-MB03 at 10,000 cells/well, A549 at 4,000 cells/well, and MDA-MB-231 at 7,000 cells/well. All other cell lines were seeded at 20,000 cells/well in a final volume of 100 µL per well. After 24 hours, cells were treated with a 6-point serial dilution of compounds starting from 10 µM, in triplicate for statistical analysis. Seventy-two hours post-treatment, 10 µL of resazurin solution (100 µg/mL) was added to each well, and cells were incubated for an additional 3–6 hours. Fluorescence was measured using a Spark 10M microplate reader (Tecan Group Ltd., Männedorf, Switzerland) with excitation at 535 nm and emission at 600 nm. […]

The test system of a further experiment is HD-MB03. Described as above. The following applies: Homo sapiens, medulloblastoma cells, 72 h of treatment, mean ± SEM, at least three experiments. Here is the method: as §1, §2
A further experiment has as its system MDA-MB-231. The experiment is described as above. To be noted: Homo sapiens, triple-negative breast cancer, 72 h of treatment, mean ± SEM. Here is the method:
as §1, §2

The next experiment relates to RPMI-8402. The experiment is described as above. To be noted: Homo sapiens, T-lymphoblastic leukemia cells, 72 h of treatment, mean ± SEM. Here is the method:
as §1, §2

Another experiment has as its system SU-DHL-8. Described as above. The following applies: Homo sapiens, B lymphocyte, large cell lymphoma, 72 h of treatment, mean ± SEM. Here is the method:
as §1, §2

Experiment [1] relates to panel of five tumor cell lines (HD-MB03, RPMI-8402, SU-DHL-8, A549, MDA-MB-231). In words: Antiproliferative activity, range over the panel of five tumor cell lines. To be noted: Homo sapiens; range over the active cell lines of the five-line panel; 72 h. Here is the method:
The synthesized quinoline derivatives 4a–z and 4aa–ah were evaluated in vitro for their antiproliferative activity against a panel of five tumor cell lines (HD‐MB03, medulloblastoma; RPMI‐8402, T‐lymphoblastic leukemia; SU‐DHL‐8, B lymphocyte, large cell lymphoma; A549, non‐small cell lung cancer; MDA‐MB‐231, triple‐negative breast cancer) (Table 2). […] Replacing the 4‐Cl group with a trifluoromethyl group (4ac) reduced antiproliferative activity.
as §1

The structures appear in SMILES notation. Where only a bound is given, the exact number is not on record here.

With `Cc1cccc(/C=C/c2cc(C(=O)Nc3ccc(C(F)(F)F)cc3)c3ccccc3n2)c1` [4y, (E)-2-(3-methylstyryl)-N-(4-(trifluoromethyl)phenyl)quinoline-4-carboxamide], the 50% inhibitory concentration (IC50) with A549 was 8.73 ± 0.74 µM; in the experiment on HD-MB03 it was 3.84 ± 0.22 µM; in the experiment on MDA-MB-231, 7.84 ± 0.65 µM; with RPMI-8402, 3.2 ± 0.19 µM; with SU-DHL-8 it was 3.25 ± 0.23 µM; in experiment [1], 3.2 to 8.97 µM.
Take `O=C(Nc1ccc(C(F)(F)F)cc1)c1cc(/C=C/c2ccc(Cl)cc2)nc2ccccc12` [4z, (E)-2-(4-chlorostyryl)-N-(4-(trifluoromethyl)phenyl)quinoline-4-carboxamide]: the 50% inhibitory concentration (IC50) in the experiment with A549 is over 10 µM; in the experiment with HD-MB03, 6.73 ± 1.15 µM; with MDA-MB-231 it was over 10 µM; in the experiment on RPMI-8402 it was over 10 µM; in the experiment with SU-DHL-8, 4.77 ± 0.32 µM; in experiment [1], 3.2 to 8.97 µM.
`O=C(Nc1ccc([N+](=O)[O-])c(C(F)(F)F)c1)c1cc(/C=C/c2ccccc2)nc2ccccc12` [4j, (E)-N-(4-nitro-3-(trifluoromethyl)phenyl)-2-styrylquinoline-4-carboxamide]: the concentration for half-maximal inhibition (IC50) was over 10 µM in the experiment on A549; 8.23 ± 0.47 µM with HD-MB03; over 10 µM in the experiment with MDA-MB-231; over 10 µM with RPMI-8402; 3.86 ± 0.44 µM in the experiment on SU-DHL-8; 3.2 to 8.97 µM in experiment [1].
Consider `Cc1ccc(NC(=O)c2cc(/C=C/c3ccccc3)nc3ccccc23)cc1` [4c, (E)-2-styryl-N-(p-tolyl)quinoline-4-carboxamide], for which the IC50 in the experiment with A549, in the experiment on HD-MB03, in the experiment with MDA-MB-231, with RPMI-8402 and in the experiment with SU-DHL-8 was over 10 µM throughout.
In the case of `O=C(Nc1ccccc1)c1cc(/C=C/c2ccccc2)nc2ccccc12` [4a, (E)-N-phenyl-2-styrylquinoline-4-carboxamide], the concentration for half-maximal inhibition (IC50) in the experiment with A549, in the experiment on HD-MB03, in the experiment on MDA-MB-231, in the experiment with RPMI-8402 and in the experiment with SU-DHL-8 was over 10 µM each time.
For the molecule `COc1ccc(/C=C/c2cc(C(=O)Nc3ccc([N+](=O)[O-])c(C(F)(F)F)c3)c3ccccc3n2)cc1` [4v, (E)-2-(4-methoxystyryl)-N-(4-nitro-3-(trifluoromethyl)phenyl)quinoline-4-carboxamide], the IC50 in the experiment with A549, in the experiment with HD-MB03, in the experiment with MDA-MB-231, in the experiment with RPMI-8402 and with SU-DHL-8 was over 10 µM throughout.
`O=C(Nc1ccc(C(F)(F)F)cc1)c1cc(/C=C/c2ccccc2[N+](=O)[O-])nc2ccccc12` [4ac, (E)-2-(2-nitrostyryl)-N-(4-(trifluoromethyl)phenyl)quinoline-4-carboxamide]: the IC50 in the experiment on A549, in the experiment with HD-MB03, in the experiment on MDA-MB-231, in the experiment on RPMI-8402 and in the experiment with SU-DHL-8 was over 10 µM in each case.
Regarding `COc1ccc(/C=C/c2cc(C(=O)Nc3ccc(Cl)cc3)c3ccccc3n2)cc1` [4ae, (E)-N-(4-chlorophenyl)-2-(4-methoxystyryl)quinoline-4-carboxamide], the half-maximal inhibitory concentration (IC50) in the experiment on A549 was over 10 µM; in the experiment on HD-MB03, over 10 µM; in the experiment with MDA-MB-231, over 10 µM; in the experiment on RPMI-8402 it was 6.41 ± 1.16 µM; in the experiment with SU-DHL-8 it was 4.67 ± 0.14 µM.
On to `O=C(Nc1ccc(Cl)cc1)c1cc(/C=C/c2ccc(Cl)cc2)nc2ccccc12` [4af, (E)-N-(4-chlorophenyl)-2-(4-chlorostyryl)quinoline-4-carboxamide], for which the IC50 with A549 is over 10 µM; in the experiment on HD-MB03, over 10 µM; with MDA-MB-231, over 10 µM; in the experiment on RPMI-8402, 4.61 ± 0.24 µM; in the experiment on SU-DHL-8, 4.45 ± 0.53 µM.
As to `COc1cc(/C=C/c2cc(C(=O)Nc3ccc(C)cc3)c3ccccc3n2)cc(OC)c1OC` [4m, (E)-N-(p-tolyl)-2-(3,4,5-trimethoxystyryl)quinoline-4-carboxamide], the IC50 in the experiment with A549, in the experiment on HD-MB03, with MDA-MB-231, in the experiment with RPMI-8402 and with SU-DHL-8 was over 10 µM each time.
